Tests used:
[1] = system: non-small cell lung carcinoma (NSCLC) patients; assay: Japan Phase III Clinical Trial: decrease in hemoglobin, erythrocyte and hematocrit levels; assay type: in vivo; conditions: Tavocept arm with paclitaxel and cisplatin, Fig. 3
Source text: (§1) As utilized herein, the term "clinical trial" or "trial", refers to the Japan Phase III Clinical Trial disclosed in the present invention which was utilized to show the ability of Tavocept™ (also referred to in the literature as disodium 2,2'-dithio-bis-ethane sulfonate, dimesna, or BNP7787) to prevent and/or reduce peripheral neuropathy induced by paclitaxel/cisplatin combination therapy. The incidence and severity of adverse reactions, time to their onset, etc. and the like, were compared between patients treated with Tavocept™ and those given a placebo using Quality of Life (QOL) questionnaires (i.e., Peripheral Neuropathy Questionnaire (PNQ^©) and CIPN-20)) and the National Cancer Institute - Common Toxicity Criteria (NCI-CTC). The effects of Tavocept™ on the Quality of Life (QOL) of patients under anticancer treatment was also evaluated using the QOL questionnaire, EORTC QLQ-C30. Whether or not Tavocept™ would affect the efficacy of paclitaxel/cisplatin combination therapy was also evaluated based on the response rate, aggravation-free survival period, and total survival period. In order to make all these evaluations, Tavocept™ (approximately14-22 g/m^2, most preferably approximately 18.4 g/m^2) or placebo (0.9% NaCl) was administered to non-small cell lung carcinoma (NSCLC) patients, including adenocarcinoma patients, under chemotherapy with paclitaxel (approximately 160-190 mg/m^2, most preferably approximately 175 mg/m^2) and cisplatin (approximately 60-100 mg/m^2, most preferably approximately 80 mg/m^2), every 3 weeks (and repeated for a minimum of 2 cycles).
(§2) Data was recently unblinded from a multicenter double-blind randomized placebo-controlled Phase III clinical trial of the Formula (I) compound Tavocept™ (also known as BNP7787, disodium 2,2'-dithio-bis-ethane sulfonate, and dimesna) conducted in Japan (hereinafter the "Japan Phase III Clinical Trial") and involving patients with advanced non-small cell lung carcinoma (NSCLC) who received the chemotherapeutic drugs paclitaxel and cisplatin. […]

[2] = system: non-small cell lung carcinoma (NSCLC) patients; assay: Japan Phase III Clinical Trial: other chemotherapy-related symptoms and toxicities; assay type: in vivo
Source text: as §1
Data was recently unblinded from a multicenter double-blind randomized placebo-controlled Phase III clinical trial of the Formula (I) compound Tavocept™ (also known as BNP7787, disodium 2,2'-dithio-bis-ethane sulfonate, and dimesna) conducted in Japan (hereinafter the "Japan Phase III Clinical Trial") and involving patients with advanced non-small cell lung carcinoma (NSCLC) who received the chemotherapeutic drugs paclitaxel and cisplatin.
Patients admitted into the trial included those patients without previous treatment (excluding surgical treatment, administration of Picibanil into the serous membrane, irradiation of 30% or less hematopoietic bone, or oral chemotherapeutic agents within 3 months of entry in the trial).
The Japan Phase III Clinical Trial was conducted as a double-blind study because peripheral neuropathy is diagnosed based on subjective symptoms evaluated through clinical interviews, lab tests, and the like. Accordingly, evaluations by both physicians and patients are highly important. […] A placebo was used as control since there is no established therapy or drug for preventing peripheral neuropathy. Because the severity of peripheral neuropathy is evaluated based on patients' reports (i.e., subjective symptoms), the Peripheral Neuropathy Questionnaire (PNQ^©) was used in primary evaluation. CIPN-20 and NCI-CTC were used in secondary evaluation. The incidence and severity of adverse reactions, time to their onset, etc. and the like, were compared between patients treated with Tavocept™ and those given a placebo using the aforementioned methods.
In order to conduct the present trial, Tavocept™ (approximately14-22 g/m^2, most preferably approximately 18.4 g/m^2) or placebo (0.9% NaCl) was administered to non-small cell lung carcinoma (NSCLC) patients receiving chemotherapy with paclitaxel (approximately 160-190 mg/m^2, most preferably approximately 175 mg/m^2) and cisplatin (approximately 60-100, most preferably approximately 80 mg/m^2), every 3 weeks (and repeated for a minimum of 2 cycles).

[3] = system: non-small cell lung carcinoma (NSCLC); assay: Japan Phase III Clinical Trial: patient survival, NSCLC; assay type: in vivo, patients
Source text: as §1, §2

[4] = system: adenocarcinoma; assay: Japan Phase III Clinical Trial: patient survival, adenocarcinoma; assay type: in vivo, patients
Source text: as §1, with “In order to make all these evaluations, Tavocept™ (approximately14-22 g/m^2, most preferably approximately 18.4 g/m^2) or placebo (0.9% NaCl) was administered to non-small cell lung carcinoma (NSCLC) patients, including adenocarcinoma patients, under chemotherapy with paclitaxel (approximately 160-190 mg/m^2, most preferably approximately 175 mg/m^2) and cisplatin (approximately 60-100 mg/m^2, most preferably approximately 80 mg/m^2), every 3 weeks (and repeated for a minimum of 2 cycles).” left out

[5] = system: patients with advanced non-small cell lung carcinoma (NSCLC); assay: Japan Phase III Clinical Trial: chemotherapy-induced peripheral neuropathy (Peripheral Neuropathy Questionnaire, PNQ); assay type: in vivo
Source text: As utilized herein, the term "clinical trial" or "trial", refers to the Japan Phase III Clinical Trial disclosed in the present invention which was utilized to show the ability of Tavocept™ (also referred to in the literature as disodium 2,2'-dithio-bis-ethane sulfonate, dimesna, or BNP7787) to prevent and/or reduce peripheral neuropathy induced by paclitaxel/cisplatin combination therapy. […] The effects of Tavocept™ on the Quality of Life (QOL) of patients under anticancer treatment was also evaluated using the QOL questionnaire, EORTC QLQ-C30. Whether or not Tavocept™ would affect the efficacy of paclitaxel/cisplatin combination therapy was also evaluated based on the response rate, aggravation-free survival period, and total survival period. […]
The Japan Phase III Clinical Trial was conducted as a double-blind study because peripheral neuropathy is diagnosed based on subjective symptoms evaluated through clinical interviews, lab tests, and the like. […] Because the severity of peripheral neuropathy is evaluated based on patients' reports (i.e., subjective symptoms), the Peripheral Neuropathy Questionnaire (PNQ^©) was used in primary evaluation. […]

[6] = system: non-small cell lung carcinoma (NSCLC); assay: Japan Phase III Clinical Trial: tumor response rate to chemotherapy; assay type: in vivo, patients; conditions: Tavocept arm with paclitaxel and cisplatin, Fig. 4
Source text: as §1, with “In order to make all these evaluations, Tavocept™ (approximately14-22 g/m^2, most preferably approximately 18.4 g/m^2) or placebo (0.9% NaCl) was administered to non-small cell lung carcinoma (NSCLC) patients, including adenocarcinoma patients, under chemotherapy with paclitaxel (approximately 160-190 mg/m^2, most preferably approximately 175 mg/m^2) and cisplatin (approximately 60-100 mg/m^2, most preferably approximately 80 mg/m^2), every 3 weeks (and repeated for a minimum of 2 cycles).” left out

[7] = clinical trial population, summary statement

## O=S(=O)([O-])CCSSCCS(=O)(=O)[O-].[Na+].[Na+] [Tavocept™, disodium 2,2'-dithio-bis-ethane sulfonate]
[1]; placebo arm 5
  patients with Grade 3 (severe) decrease in hematocrit levels: 1 patients
  patients with Grade 3 (severe) decrease in red blood cell: 1 patients
[1]; placebo arm 8
  patients with Grade 3 (severe) decrease in hemoglobin: 2 patients
[2]; [7]
  chemotherapy-induced kidney damage: medically-important reductions
  chemotherapy-induced vomiting/emesis: medically-important reductions
[2]; p = 0.0029, paclitaxel/Tavocept/cisplatin vs placebo regimen
  anorexia: reductions
[2]; p = 0.0163, paclitaxel/Tavocept/cisplatin vs placebo regimen
  fatigue: reductions
[2]; p = 0.0240, paclitaxel/Tavocept/cisplatin vs placebo regimen
  nausea/vomiting: reductions
[2]; p = 0.0859, paclitaxel/Tavocept/cisplatin vs placebo regimen
  diarrhea: reductions
[2]; p = 0.1108, paclitaxel/Tavocept/cisplatin vs placebo regimen
  insomnia: reductions
[2]; p = 0.1114, paclitaxel/Tavocept/cisplatin vs placebo regimen
  constipation: reductions
[3]; NSCLC patients, paclitaxel/Tavocept/cisplatin vs paclitaxel/saline placebo/cisplatin, Fig. 5
  increase in median survival time: up to 40 days
[3]; female NSCLC patients, paclitaxel/Tavocept/cisplatin vs paclitaxel/saline placebo/cisplatin, Fig. 6
  survival period: longer survival period
[3]; patients with advanced NSCLC receiving Tavocept and chemotherapy, summary statement
  survival times: increased survival times
[4]; adenocarcinoma patients, paclitaxel/Tavocept/cisplatin vs paclitaxel/saline placebo/cisplatin, Fig. 7
  increase in median survival time: up to 138 days
[4]; patients with adenocarcinoma receiving Tavocept and chemotherapy, summary statement
  survival time: medically-important increase
[5]; Tavocept and chemotherapy vs chemotherapy and placebo, summary statement
  chemotherapy-induced peripheral neuropathy: medically-important reductions
[5]; paclitaxel/Tavocept/cisplatin regimen vs paclitaxel/saline placebo/cisplatin regimen, PNQ, Fig. 1
  reduction in severe (Grade D or E) peripheral neuropathy: ~50%
[6]; Independent Radiological Committee, placebo arm 28.6%
  response rate as measured by the IRC: 33.3%
[6]; placebo arm 33.0%
  Response Rate, as measured by physicians: 41.9%

From patent publication EP2249825B1, “TREATMENT METHODS AND COMPOSITIONS FOR LUNG CANCER, ADENOCARCINOMA, AND OTHER MEDICAL CONDITIONS” (BIONUMERIK PHARMACEUTICALS, INC., priority 2008, dated 2009)
